Assay [1] concerns the target T1, cGMP-specific 3',5'-cyclic phosphodiesterase (Homo sapiens, UniProt O76074). Nature of the assay: Percentage inhibition against human phosphodiesterase type 5 isolated from corpus cavernosum at 100 nM.
The target in assay [2] is T1, cGMP-specific 3',5'-cyclic phosphodiesterase. Nature of the assay: Concentration required to inhibit phosphodiesterase type 5 (PDE5) isolated from corpus cavernosum by 50% was determined.
For assay [3], the target named is Phosphodiesterases; PDE5 & PDE6 (Homo sapiens) (UniProt O76074+Q13956+P18545+P35913+O43924+P16499+P51160). As to the kind of experiment: Selectivity for PDE6 compared to PDE5. It counts as protein assay.
Assay [4] is described as follows: Relative inhibition of PDEs 1-4 and PDE5.
The species entered for assay [5] is Oryctolagus cuniculus. As to the kind of experiment: 0.50 Hz electrical frequency stimulated (EFS) relaxation of rabbit corpus cavernosum at 25-30 nM. Format: functional.
Assay [6] is filed under the species Oryctolagus cuniculus. Nature of the assay: 1.0 Hz electrical frequency stimulated (EFS) relaxation of rabbit corpus cavernosum at 25-30 nM. Format: functional.
The species named for assay [7] is Oryctolagus cuniculus. Nature of the assay: 16.0 Hz electrical frequency stimulated (EFS) relaxation of rabbit corpus cavernosum at 25-30 nM. It counts as functional.
The species named for assay [8] is Oryctolagus cuniculus. As to the kind of experiment: 2.0 Hz electrical frequency stimulated (EFS) relaxation of rabbit corpus cavernosum at 25-30 nM. Format: functional.
The species named for assay [9] is Oryctolagus cuniculus. As to the kind of experiment: 4.0 Hz electrical frequency stimulated (EFS) relaxation of rabbit corpus cavernosum at 25-30 nM. Format: functional.
The species named for assay [10] is Oryctolagus cuniculus. As to the kind of experiment: 8.0 Hz electrical frequency stimulated (EFS) relaxation of rabbit corpus cavernosum at 25-30 nM. It counts as functional.

This is an account of results in ChEMBL document CHEMBL1134944, “Design and synthesis of xanthine analogues as potent and selective PDE5 inhibitors” (Bioorg Med Chem Lett, 2002).

SMILES strings stand for the structures. The source made the active and inactive calls. The rule behind the calls is not given here. Where only a bound is given, the exact number is not on record here.

What is called inhibition is the drop in the measured response relative to a control, in per cent. Broadly, the IC50 is the concentration needed to halve the response being measured. Lower therefore signals greater potency in that assay.

`Cn1c(=O)c2c(nc(N[C@@H](CO)c3ccccc3)n2Cc2ccccc2)n(C)c1=O` gave an inhibition in assay [1] of 0%.
As for `CCn1c(=O)c2c(nc(NC3CCCCC3)n2Cc2ccccc2)n(CC(C)C)c1=O`, in assay [1], the inhibition turned out to be 63%.
On to `CCn1c(=O)c2c(nc(NC3CCCC3)n2Cc2ccc(O)c(Cl)c2)n(CC)c1=O`, for which the IC50 in assay [2] came to 1.8 nM. Moreover, the Ratio in assay [3] worked out at 261.
Consider `CCn1c(=O)c2c(nc(NC3CCCC3)n2Cc2ccc(OC)cc2)n(CC)c1=O`, for which, in [2], the IC50 came out at 2.1 nM. Besides, the Ratio in assay [3] amounted to 33.
Consider `CCn1c(=O)c2c(nc(NC3CCCC3)n2Cc2ccccc2)n(CC(C)C)c1=O`, for which the inhibition in assay [1] worked out at 56%.
In turn, `CCn1c(=O)c2c(nc(NC3CCCCC3)n2Cc2ccc(OC)c(Cl)c2)n(CC)c1=O` registered an IC50 in assay [2] of 0.58 nM. The Ratio in assay [3] was 345; in assay [4], more than 9500.
For the molecule `Cn1c(=O)c2c(nc(N[C@@H](CO)Cc3ccccc3)n2Cc2ccccc2)n(C)c1=O`, the inhibition in assay [1] came to 4%.
On to `CCn1c(=O)c2c(nc(NC3CCCC3)n2Cc2ccc(OC)c(Cl)c2)n(CC)c1=O`, for which the 50% inhibitory concentration (IC50) in assay [2] amounted to 1.1 nM. The Ratio in assay [3] turned out to be 118.
The molecule `CCn1c(=O)c2c(nc(NC3CCCCC3)n2Cc2ccc(O)c(F)c2)n(CC)c1=O` yielded an IC50 in assay [2] of 0.33 nM. Further, the Ratio was 364 in assay [3] and more than 12000 in assay [4].
Regarding `CCn1c(=O)c2c(nc(NC3CCCCC3)n2Cc2ccc(OC)c(C)c2)n(CC)c1=O`, the IC50 in assay [2] worked out at 19 nM. The Ratio in assay [3] was found to be 58.
In [1], `Cn1c(=O)c2c(nc(NC3CCCCC3)n2Cc2ccccc2)n(C)c1=O` returned an inhibition of 54%.
Molecule `Cn1c(=O)c2c(nc(NC3CCCC3)n2Cc2ccccc2)n(C)c1=O` came in with an inhibition in assay [1] of 62%.
`CCn1c(=O)c2c(nc(NC3CCCCC3)n2Cc2cccc(OC)c2)n(CC)c1=O`: the IC50 in assay [2] was 100 nM. In addition, in [3], the Ratio result is “inactive”.
For the molecule `CC(C)Cn1c(=O)n(C)c(=O)c2c1nc(NC1CCCCC1)n2Cc1ccccc1`, the inhibition in assay [1] was determined as 52%.
`CCn1c(=O)c2c(nc(NC3CCCC3)n2Cc2ccccc2)n(CC)c1=O` showed an inhibition in [1] of 91%. In addition, in assay [3], the Ratio is 21.
In [2], `CCn1c(=O)c2c(nc(NC3CCCC3)n2Cc2ccc(O)cc2)n(CC)c1=O` gave an IC50 of 1.5 nM. Moreover, the Ratio in [3] came out at 46.
The matching figures for `CCn1c(=O)c2c(nc(NC3CCCC3)n2Cc2ccc(OC)c(F)c2)n(CC)c1=O`: 0.69 nM and 89.
In assay [1], `CC(C)Cn1c(=O)n(C)c(=O)c2c1nc(NC1CCCC1)n2Cc1ccccc1` showed an inhibition of 49%.
`CCn1c(=O)c2c(nc(NC3CCCCC3)n2Cc2ccc(OC)c(F)c2)n(CC)c1=O`: half-maximal inhibition in assay [2] (IC50) was put at 0.3 nM. For the same molecule, the Ratio in assay [3] was 350; in assay [4] it was more than 28000.
Regarding `CC(C)[C@H](CO)Nc1nc2c(c(=O)n(C)c(=O)n2C)n1Cc1ccccc1`, the inhibition in assay [1] stood at 11%.
In turn, `CCn1c(=O)c2c(nc(NC3CCCCC3)n2Cc2ccccc2)n(CC)c1=O` showed an IC50 in assay [2] of 12 nM. Besides, in assay [1], the inhibition was found to be 93%. In addition, the Ratio in [3] was 35.
Molecule `CCn1c(=O)c2c(nc(NC3CCCC3)n2Cc2ccc(O)c(F)c2)n(CC)c1=O` had an IC50 in assay [2] of 0.82 nM. Also, the Ratio is 182 in [3] and more than 4400 in assay [4].
As for `CCn1c(=O)c2c(nc(NC3CCCCC3)n2Cc2ccc(OC)c(Br)c2)n(CC)c1=O`, half-maximal inhibition in assay [2] (IC50) was put at 1.7 nM. The Ratio in [3] was 219; in assay [4], more than 10000.
`Cn1c(=O)c2c(nc(N[C@H](CO)Cc3ccccc3)n2Cc2ccccc2)n(C)c1=O`: the inhibition in assay [1] is 0%.
For the molecule `CCn1c(=O)c2c(nc(NC3CCCCC3)n2Cc2cccc(O)c2)n(CC)c1=O`, 1.2 nM corresponded to half-maximal inhibition in [2] (IC50). The Ratio in assay [3] came to 36.
`CCn1c(=O)c2c(nc(NC3CCCCC3)n2Cc2ccc(O)c(C)c2)n(CC)c1=O` returned an IC50 in assay [2] of 4.5 nM. Further, in assay [3], the Ratio was found to be 133.
The like results for `CCn1c(=O)c2c(nc(NC3CCCCC3)n2Cc2ccc(O)c(Cl)c2)n(CC)c1=O` were, in that order, 2 nM and 250.
In the case of `Cn1c(=O)c2c(nc(N[C@H](CO)c3ccccc3)n2Cc2ccccc2)n(C)c1=O`, in [1], the inhibition is 5%.
On the same count and under the same terms, the result for `Cn1c(=O)c2c(nc(NCC3(O)CCCCC3)n2Cc2ccccc2)n(C)c1=O` reads 10%.
Consider `CCn1c(=O)c2c(nc(NC3CCCCC3)n2Cc2ccc(OC)cc2)n(CC)c1=O`, for which the IC50 in [2] was 2.6 nM. In addition, the Ratio in assay [3] stood at 51.
Molecule `CC(C)[C@@H](CO)Nc1nc2c(c(=O)n(C)c(=O)n2C)n1Cc1ccccc1` yielded an inhibition in [1] of 2%.
`CCn1c(=O)c2c(nc(NC3CCCCC3)n2Cc2ccc3c(c2)OCO3)n(CC)c1=O` registered an IC50 in [2] of 3.7 nM. In addition, in [3], the Ratio came to 14.
As for `Cn1c(=O)c2c(nc(N[C@@H]3CCC[C@H]3O)n2Cc2ccccc2)n(C)c1=O`, the inhibition in [1] worked out at 17%.
For the molecule `CCn1c(=O)c2c(nc(NC3CCCCC3)n2Cc2ccc(O)cc2)n(CC)c1=O`, it took 0.6 nM to reach half-maximal inhibition in assay [2] (IC50). Besides, the Relaxation in assay [5] turned out to be 25%; in assay [6], 50%; in [7], 75%; in assay [8], 75%; in [9] it was 75%; in [10] it was 75%. For the same molecule, the Ratio was 101 in assay [3] and more than 3000 in [4].
